Test results from paper PMC12175894 (Science Advances, 2025).
Changes are numbered by the printed parent chain.

Key:
[1] = molecular target: T1, 5-HT1AR F112^3.28W (Homo sapiens, UniProt P08908, F112W); test: GloSensor cAMP accumulation in HEK293AΔGi/o; type: cell-based; conditions: read-out: Emax [% ± SEM], cAMP accumulation
T1 sequence (P08908 1-422 F112W): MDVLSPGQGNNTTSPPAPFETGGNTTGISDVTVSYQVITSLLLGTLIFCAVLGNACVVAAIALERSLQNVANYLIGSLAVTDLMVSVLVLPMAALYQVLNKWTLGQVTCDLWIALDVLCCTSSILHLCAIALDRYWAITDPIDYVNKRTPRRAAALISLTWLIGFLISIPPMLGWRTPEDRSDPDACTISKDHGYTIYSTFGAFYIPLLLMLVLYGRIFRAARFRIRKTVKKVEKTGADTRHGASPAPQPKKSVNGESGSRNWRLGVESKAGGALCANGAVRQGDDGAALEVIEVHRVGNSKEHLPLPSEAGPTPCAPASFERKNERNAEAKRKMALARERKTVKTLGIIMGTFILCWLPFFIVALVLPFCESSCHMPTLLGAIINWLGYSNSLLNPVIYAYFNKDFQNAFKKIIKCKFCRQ

[2] = molecular target: 5-HT1FR (Homo sapiens, UniProt P30939); test: BRET Gαi1 activation
5-HT1FR, sequence (P30939 whole entry): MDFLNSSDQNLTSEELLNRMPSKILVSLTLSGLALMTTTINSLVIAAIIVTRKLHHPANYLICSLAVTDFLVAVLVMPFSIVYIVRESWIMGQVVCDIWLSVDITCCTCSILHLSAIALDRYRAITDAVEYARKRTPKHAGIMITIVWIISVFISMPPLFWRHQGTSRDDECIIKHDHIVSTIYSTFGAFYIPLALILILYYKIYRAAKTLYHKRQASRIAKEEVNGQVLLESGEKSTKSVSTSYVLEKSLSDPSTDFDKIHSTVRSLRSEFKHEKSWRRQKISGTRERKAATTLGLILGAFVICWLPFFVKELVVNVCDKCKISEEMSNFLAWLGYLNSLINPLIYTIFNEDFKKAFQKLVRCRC

[3] = molecular target: T2, 5-HT1AR F112^3.28W + M92^2.60F (Homo sapiens, UniProt P08908, F112W/M92F); test: GloSensor cAMP accumulation in HEK293AΔGi/o; type: cell-based; conditions: read-out: Emax [% ± SEM], cAMP accumulation
T2 sequence (P08908 1-422 M92F/F112W): T1 sequence (P08908 1-422 F112W) with M92F

[4] = molecular target: orexin OX2 (Homo sapiens, UniProt O43614); test: Radioligand displacement, [3H]EMPA
orexin OX2, sequence (O43614 whole entry): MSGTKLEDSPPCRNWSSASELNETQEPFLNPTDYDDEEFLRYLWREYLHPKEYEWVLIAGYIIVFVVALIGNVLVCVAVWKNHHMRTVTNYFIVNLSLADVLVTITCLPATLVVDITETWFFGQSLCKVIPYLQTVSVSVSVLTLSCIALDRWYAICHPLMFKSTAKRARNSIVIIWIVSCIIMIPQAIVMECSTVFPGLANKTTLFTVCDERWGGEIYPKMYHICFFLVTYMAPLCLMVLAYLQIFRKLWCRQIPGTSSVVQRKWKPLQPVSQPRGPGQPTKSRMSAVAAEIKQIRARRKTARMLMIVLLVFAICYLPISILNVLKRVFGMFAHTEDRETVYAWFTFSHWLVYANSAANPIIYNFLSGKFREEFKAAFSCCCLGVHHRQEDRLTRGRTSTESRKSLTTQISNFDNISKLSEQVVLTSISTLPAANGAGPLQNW

[5] = molecular target: T3, 5-HT1AR (Homo sapiens, UniProt P08908); test: IP-One accumulation with hybrid Gαqi in HEK293T; type: cell-based; design: host or cells: HEK293T, HEK293A, HEK293AΔGs, HEK293AΔGi/o, HEK293AΔARRB1/B2
T3 sequence (P08908 1-422): T1 sequence (P08908 1-422 F112W) with W112F

[6] = molecular target: neurotensin NTS2 (Homo sapiens, UniProt O95665); test: Radioligand displacement, [3H]NT(8-13)
neurotensin NTS2, sequence (O95665 whole entry): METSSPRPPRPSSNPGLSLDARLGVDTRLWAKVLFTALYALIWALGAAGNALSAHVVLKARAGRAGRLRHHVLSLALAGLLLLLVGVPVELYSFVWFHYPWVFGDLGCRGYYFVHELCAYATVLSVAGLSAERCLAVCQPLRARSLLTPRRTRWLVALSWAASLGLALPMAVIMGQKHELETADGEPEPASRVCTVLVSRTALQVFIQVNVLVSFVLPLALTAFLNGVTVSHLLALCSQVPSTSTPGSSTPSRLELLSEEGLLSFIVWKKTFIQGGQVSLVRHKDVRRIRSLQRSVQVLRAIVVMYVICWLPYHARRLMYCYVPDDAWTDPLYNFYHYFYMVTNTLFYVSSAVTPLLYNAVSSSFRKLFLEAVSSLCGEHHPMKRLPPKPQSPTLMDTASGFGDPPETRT

[7] = Metabolic stability with rat liver microsomes; type: in vitro ADME
[8] = tested on: 5-HT1AR + Gαi1
[9] = molecular target: 5-HT1AR + Gαi1 (Homo sapiens, UniProt P08908)
5-HT1AR + Gαi1 (Homo sapiens, UniProt P08908), sequence (P08908 whole entry): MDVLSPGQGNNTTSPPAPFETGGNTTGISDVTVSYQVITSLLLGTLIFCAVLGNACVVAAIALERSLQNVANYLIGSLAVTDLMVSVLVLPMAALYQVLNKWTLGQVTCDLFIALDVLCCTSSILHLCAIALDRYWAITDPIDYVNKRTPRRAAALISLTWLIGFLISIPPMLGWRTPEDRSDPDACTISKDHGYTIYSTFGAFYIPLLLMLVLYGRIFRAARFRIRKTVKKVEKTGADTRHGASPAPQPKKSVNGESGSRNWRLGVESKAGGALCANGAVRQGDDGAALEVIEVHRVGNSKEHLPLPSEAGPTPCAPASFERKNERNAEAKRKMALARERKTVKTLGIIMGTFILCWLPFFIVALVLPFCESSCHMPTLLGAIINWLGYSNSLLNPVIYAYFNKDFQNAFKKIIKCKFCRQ
5-HT1AR + Gαi1 (Homo sapiens, UniProt P08908), sequence (P63096 2-354 partner limits assumed): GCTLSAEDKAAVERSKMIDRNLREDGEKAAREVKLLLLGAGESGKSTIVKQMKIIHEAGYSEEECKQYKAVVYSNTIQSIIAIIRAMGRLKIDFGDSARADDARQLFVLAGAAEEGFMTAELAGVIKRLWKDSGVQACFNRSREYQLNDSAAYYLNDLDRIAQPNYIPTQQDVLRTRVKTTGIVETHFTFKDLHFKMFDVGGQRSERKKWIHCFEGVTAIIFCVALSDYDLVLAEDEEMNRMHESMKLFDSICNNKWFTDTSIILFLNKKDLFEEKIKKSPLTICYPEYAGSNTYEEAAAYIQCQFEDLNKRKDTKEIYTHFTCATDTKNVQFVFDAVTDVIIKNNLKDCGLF

[10] = molecular target: T4, 5-HT1AR + Gαi2 (Homo sapiens, UniProt P08908); test: GloSensor cAMP in HEK293AΔGi/o co-transfected with Gαi2; type: cell-based
T4 construct: host or cells: HEK293AΔGi/o
T4 sequence (P08908 whole entry): as the sequence (P08908 whole entry) above
T4 sequence (P04899 2-355 partner limits assumed): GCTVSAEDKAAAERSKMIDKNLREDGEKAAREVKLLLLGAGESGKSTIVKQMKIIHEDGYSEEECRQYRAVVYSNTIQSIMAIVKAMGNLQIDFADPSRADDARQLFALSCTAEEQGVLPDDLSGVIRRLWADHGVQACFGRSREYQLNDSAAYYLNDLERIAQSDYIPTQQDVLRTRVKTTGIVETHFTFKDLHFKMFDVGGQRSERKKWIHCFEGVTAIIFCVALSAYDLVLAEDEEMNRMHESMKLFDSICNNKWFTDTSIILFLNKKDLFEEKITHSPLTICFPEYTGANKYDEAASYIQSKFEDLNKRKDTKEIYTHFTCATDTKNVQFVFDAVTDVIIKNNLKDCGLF

[11] = molecular target: dopamine D1 (Homo sapiens, UniProt P21728); test: Radioligand displacement, [3H]SCH23390
dopamine D1, sequence (P21728 whole entry): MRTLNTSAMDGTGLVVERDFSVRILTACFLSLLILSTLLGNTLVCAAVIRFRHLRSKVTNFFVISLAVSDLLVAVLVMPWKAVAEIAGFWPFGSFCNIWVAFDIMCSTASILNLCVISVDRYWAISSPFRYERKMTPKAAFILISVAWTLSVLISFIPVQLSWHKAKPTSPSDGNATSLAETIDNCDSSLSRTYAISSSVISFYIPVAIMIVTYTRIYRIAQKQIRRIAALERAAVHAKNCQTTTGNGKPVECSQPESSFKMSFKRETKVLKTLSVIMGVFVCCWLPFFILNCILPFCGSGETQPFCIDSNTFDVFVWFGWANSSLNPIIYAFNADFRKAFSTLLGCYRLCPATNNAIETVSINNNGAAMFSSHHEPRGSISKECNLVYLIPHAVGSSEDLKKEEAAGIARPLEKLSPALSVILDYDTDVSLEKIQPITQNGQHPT

[12] = molecular target: adrenergic α2B (Homo sapiens, UniProt P18089); test: Radioligand displacement, [3H]RX821002
adrenergic α2B, sequence (P18089 whole entry): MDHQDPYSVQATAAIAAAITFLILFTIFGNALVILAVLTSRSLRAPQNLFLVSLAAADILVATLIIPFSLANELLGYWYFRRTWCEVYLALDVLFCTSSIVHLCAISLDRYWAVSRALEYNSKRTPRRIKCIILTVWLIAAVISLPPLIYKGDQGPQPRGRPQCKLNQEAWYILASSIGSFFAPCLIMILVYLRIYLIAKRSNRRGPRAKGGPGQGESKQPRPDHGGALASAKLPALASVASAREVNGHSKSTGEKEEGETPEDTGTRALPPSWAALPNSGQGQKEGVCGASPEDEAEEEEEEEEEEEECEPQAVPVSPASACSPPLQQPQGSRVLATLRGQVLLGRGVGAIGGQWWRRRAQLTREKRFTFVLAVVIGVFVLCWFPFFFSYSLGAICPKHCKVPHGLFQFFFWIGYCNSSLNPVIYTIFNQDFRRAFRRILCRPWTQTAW

[13] = tested on: mice; test: Elevated plus maze; type: in vivo, mouse
[14] = molecular target: 5-HT1DR (Homo sapiens, UniProt P28221); test: BRET Gαi1 activation
5-HT1DR, sequence (P28221 whole entry): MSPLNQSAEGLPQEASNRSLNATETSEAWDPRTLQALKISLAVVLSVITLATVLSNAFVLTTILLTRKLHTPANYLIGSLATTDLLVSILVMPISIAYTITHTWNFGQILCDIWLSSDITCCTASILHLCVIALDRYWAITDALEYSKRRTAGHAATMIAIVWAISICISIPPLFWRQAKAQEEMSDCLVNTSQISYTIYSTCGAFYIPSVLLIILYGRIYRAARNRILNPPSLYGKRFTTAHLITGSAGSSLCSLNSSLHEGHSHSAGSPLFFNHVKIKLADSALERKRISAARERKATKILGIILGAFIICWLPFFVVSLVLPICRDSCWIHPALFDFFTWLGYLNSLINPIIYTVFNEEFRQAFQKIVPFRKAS

[15] = In vivo pharmacokinetic studies; conditions: mouse, CSF, ip; male C57BL/6 mice, 10 mg/kg i.p.
[16] = molecular target: adrenergic β1 (Homo sapiens, UniProt P08588); test: Radioligand displacement, [3H]CGP12177
adrenergic β1, sequence (P08588 whole entry): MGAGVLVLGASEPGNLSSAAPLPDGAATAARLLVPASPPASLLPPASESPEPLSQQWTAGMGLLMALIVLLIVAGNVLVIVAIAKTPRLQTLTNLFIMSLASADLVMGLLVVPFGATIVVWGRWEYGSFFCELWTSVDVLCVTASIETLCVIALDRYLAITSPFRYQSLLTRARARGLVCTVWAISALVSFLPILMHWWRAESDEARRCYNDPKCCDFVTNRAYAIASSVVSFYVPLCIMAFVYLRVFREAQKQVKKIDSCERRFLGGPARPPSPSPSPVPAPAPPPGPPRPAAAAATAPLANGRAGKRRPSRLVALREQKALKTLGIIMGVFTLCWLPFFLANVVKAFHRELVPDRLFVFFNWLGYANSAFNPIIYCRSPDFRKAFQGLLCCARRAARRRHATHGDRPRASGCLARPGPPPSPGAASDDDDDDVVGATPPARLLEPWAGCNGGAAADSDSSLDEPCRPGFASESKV

[17] = molecular target: T3, 5-HT1AR; test: β-arrestin 1 recruitment, enhanced bystander BRET in HEK293T with GRK2; conditions: HEK-293T, read-out: Emax, β-arrestin 1 recruitment
[18] = molecular target: T5, 5-HT1AR wildtype (Homo sapiens, UniProt P08908); test: GloSensor cAMP accumulation in HEK293AΔGi/o; type: cell-based; conditions: read-out: Emax [% ± SEM], cAMP accumulation
T5 construct: host or cells: HEK293T, HEK293A, HEK293AΔGs, HEK293AΔGi/o, HEK293AΔARRB1/B2
T5 sequence (P08908 1-422): T1 sequence (P08908 1-422 F112W) with W112F

COc1ccccc1OCCNCCCOc1ccc2c(c1)NC(=O)CO2 [ST171] showed an Emax [1] of less than 5%, an Emax [2] of less than 10% and an Emax [3] of less than 5%. For the same compound, the Ki ([4]; Ki [nM ± SD]) was greater than 50000 nM, the Ki ([4]; pKi) was greater than 50100 nM and the Emax ([5]; HEK-293T, read-out: Emax[Gqi], IP accumulation) was 43%. It also gave an EC50 ([5]; hybrid Gαqi, HEK293T, read-out: EC50[Gqi], IP accumulation) of 13 ± 2.9 nM, a Ki ([6]; Ki [nM ± SD]) greater than 50000 nM and a Ki ([6]; pKi) greater than 50100 nM. The intact substrate remaining ([7]; after 1 h incubation) was “more than 70%”, the intact substrate remaining ([7]; after 3 h incubation) was greater than 45% and the Emax [8] was 57 to 80%. For the same compound, the Emax [9] was 68 ± 3%, the Emax [10] was 57 ± 7% and the EC50 ([10]; HEK293AΔGi/o + Gαi2, read-out: EC50 [nM ± SEM], inhibition of cAMP accumulation) was 4.4 ± 1 nM. It also gave a Ki ([11]; Ki [nM ± SD]) of 260 ± 170 nM, a Ki ([11]; pKi) of 209 nM and a Ki ([12]; Ki [nM ± SD]) of 110 ± 60 nM. For the same compound, the Ki ([12]; pKi) was 103 nM, the “time in center and open arms, plus maze” value ([13]; 1 or 5 mg/kg, 30 min before test) was “spent more time in the center” and the “anxiolytic effect, plus maze” value ([13]; analgesic dose (10 mg/kg)) was “anxiolytic effects of the drug disappeared”. For the same compound, the EC50 [14] was 5.7 nM, the Emax [14] was 54% and the Cmax [15] was roughly 40 nM. The Ki ([16]; Ki [nM ± SD]) was 1700 ± 350 nM, the Ki ([16]; pKi) was 1630 nM and the Emax [17] was less than 5%.
Work on Cc1ccc(CNCC2(F)CCN(C(=O)c3ccc(F)c(Cl)c3)CC2)nc1 [befiradol, reference compound] yielded an Emax [18] of 74 ± 3%.
